These results are taken from article PMC10504015, “Design, synthesis, and enzyme inhibition evaluation of some novel Mono- and Di-O-β-D-Glycopyranosyl Chalcone analogues with molecular docking studies” (Turkish Journal of Chemistry, 2022).

Holding throughout (format): biochemical
One test addresses tyrosinase (Agaricus bisporus, UniProt C7FF04). Briefly: Tyrosinase from mushroom inhibitory effect (L-DOPA substrate, 475 nm). Conditions: phosphate buffer pH 6.8, read-out: IC50 on tyrosinase (Tyr). As for the experimental part:
The tyrosinase inhibitory effects of the newly synthesized compounds were performed using microplate reader with minor modifications according to the standard method. […] The activity of tyrosinase solution was adjusted as 250 U/mL in phosphate buffer (pH 6.8, 100 mM). For each wells, 100 μL buffer (pH 6.8, 100 mM), 20 μL of tyrosinase (0.2 U/mL), and 20 μL of compounds were added and incubated 20 min. After incubation, 20 μL of 3,4-dihydroxy-L-phenylalanine (3 mM) was pipetted into wells. Absorbance was measured at 475 nm.

The next test concerns the target AChE (Electrophorus electricus, UniProt O42275). Conditions: electric eel AChE, Tris-HCl buffer pH 8.0. As for the experimental part:
The AChE from electric eel inhibitory effects of the newly synthesized compounds were performed using microplate reader with minor modification according to the standard method. […] The activity of AChE solution was adjusted as 0.2 U/mL in Tris-HCl buffer (pH 8.0, 50 mM). For each wells, 50 μL buffer (pH 8.0, 50 mM), 125 μL 5,5-dithio-bis(2-nitrobenzoic)acid (3 mM), 25 μL of AChE (0.2 U/mL) and 25 μL of compounds were added and incubated 20 min at room temperature. After incubation, 25 μL of acetylthiocholine iodide (15 mM) was pipetted into wells. Absorbance was measured at 412 nm.

Another test deals with α-glycosidase. The test can be described thus: α-Glycosidase inhibitory effect (p-nitrophenyl-α-D glucopyranoside substrate). Conditions: enzyme 2 U/mL, phosphate buffer pH 6.8, 37 °C; nd: not detected. As for the experimental part:
α-glycosidase inhibitory effect of the newly synthesized samples that were solvated in DMSO was performed with some minor modifications of the standard method. The activity degree of the enzyme solution was adjusted as 2 U/mL in phosphate buffer (pH 6.8, 50 mM). For each test tube, 150 μL of the sample, 150 μL of the enzyme (2 U/mL), and 150 μL of buffer were pipetted. After the incubation for 15 min at 37 °C, 150 μL of p-nitrophenyl-α-D glucopyranoside (20 mM, Sigma-Aldrich) was added and then their absorbance was monitored for 20 min at 400 nm.

tyrosinase, sequence (C7FF04 1-392 limits assumed): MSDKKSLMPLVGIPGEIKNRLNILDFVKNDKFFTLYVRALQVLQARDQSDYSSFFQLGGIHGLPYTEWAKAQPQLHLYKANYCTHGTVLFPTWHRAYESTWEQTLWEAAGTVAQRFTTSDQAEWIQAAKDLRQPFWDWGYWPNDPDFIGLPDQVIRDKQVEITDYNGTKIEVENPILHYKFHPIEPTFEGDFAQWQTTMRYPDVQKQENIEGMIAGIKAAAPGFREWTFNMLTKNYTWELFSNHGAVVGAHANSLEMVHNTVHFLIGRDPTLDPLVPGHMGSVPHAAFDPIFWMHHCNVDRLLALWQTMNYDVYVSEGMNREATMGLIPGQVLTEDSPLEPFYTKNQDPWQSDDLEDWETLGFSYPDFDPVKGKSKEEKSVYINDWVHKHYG
AChE, sequence (O42275 24-633): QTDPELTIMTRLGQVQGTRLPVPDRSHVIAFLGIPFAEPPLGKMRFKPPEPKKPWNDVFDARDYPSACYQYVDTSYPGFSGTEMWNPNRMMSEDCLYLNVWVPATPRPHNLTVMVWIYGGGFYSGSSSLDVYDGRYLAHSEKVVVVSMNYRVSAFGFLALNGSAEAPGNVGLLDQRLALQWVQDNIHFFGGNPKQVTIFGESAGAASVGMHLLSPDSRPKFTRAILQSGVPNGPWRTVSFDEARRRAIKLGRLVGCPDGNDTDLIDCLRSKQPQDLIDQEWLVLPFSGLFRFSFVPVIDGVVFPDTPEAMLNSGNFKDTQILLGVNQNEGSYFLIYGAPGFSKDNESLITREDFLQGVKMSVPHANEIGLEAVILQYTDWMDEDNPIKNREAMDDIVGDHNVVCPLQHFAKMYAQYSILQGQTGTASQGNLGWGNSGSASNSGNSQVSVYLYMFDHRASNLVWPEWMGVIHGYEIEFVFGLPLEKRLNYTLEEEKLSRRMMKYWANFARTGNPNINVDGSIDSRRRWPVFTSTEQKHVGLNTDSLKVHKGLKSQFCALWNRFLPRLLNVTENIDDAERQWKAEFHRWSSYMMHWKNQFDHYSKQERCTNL

In the case of `COc1cc(C(=O)/C=C/c2ccccc2O)ccc1O[C@@H]1O[C@H](CO)[C@@H](O)[C@H](O)[C@H]1O` [7a, (2E)-1-(4-O-β-D-glucopyranosyl-3-methoxyphenyl)-3-(2-hydroxyphenyl)prop-2-en-1-one], the IC50 at tyrosinase and against AChE was over 100 µM in each case.

On to `COc1cc(C(=O)/C=C/c2cccc(O)c2)ccc1O[C@@H]1O[C@H](CO)[C@@H](O)[C@H](O)[C@H]1O` [7b, (2E)-1-(4-O-β-D-glucopyranosyl-3-methoxyphenyl)-3-(3-hydroxyphenyl)prop-2-en-1-one], for which the IC50 – broadly, the concentration that gives 50% inhibition – at tyrosinase was 82.5 ± 4.5 µM; at AChE it was over 100 µM.

Regarding `COc1cc(C(=O)/C=C/c2ccc(O)cc2)ccc1OC1OC(CO)C(O)C(O)C1O` [7c, (2E)-1-(4-O-β-D-glucopyranosyl-3-methoxyphenyl)-3-(4-hydroxyphenyl)prop-2-en-1-one], the figures for the IC50 on tyrosinase and against AChE were 11.1 ± 0.55 µM and over 100 µM, respectively.

Regarding `COc1cc(C(=O)/C=C/c2ccccc2O[C@@H]2O[C@H](CO)[C@@H](O)[C@H](O)[C@H]2O)ccc1O[C@@H]1O[C@H](CO)[C@@H](O)[C@H](O)[C@H]1O` [8a, (2E)-1-(4-O-β-D-glucopyranosyl-3-methoxyphenyl)-3-(2-O-β-D-glucopyranosylphenyl)-prop-2-en-1-one], the IC50 at tyrosinase and against AChE was over 100 µM throughout.

With `COc1cc(C(=O)/C=C/c2cccc(OC3OC(CO)C(O)C(O)C3O)c2)ccc1OC1OC(CO)C(O)C(O)C1O` [8b, (2E)-1-(4-O-β-D-glucopyranosyl-3-methoxyphenyl)-3-(3-O-β-D-glucopyranosylphenyl)-prop-2-en-1-one], the IC50 on tyrosinase was over 100 µM; on AChE, 81.8 ± 3.4 µM.

For `COc1cc(C(=O)/C=C/c2ccc(O[C@@H]3O[C@H](CO)[C@@H](O)[C@H](O)[C@H]3O)cc2)ccc1O[C@@H]1O[C@H](CO)[C@@H](O)[C@H](O)[C@H]1O` [8c, (2E)-1-(4-O-β-D-glucopyranosyl-3-methoxyphenyl)-3-(4-O-β-D-glucopyranosylphenyl)-prop-2-en-1-one], the half-maximal inhibitory concentration (IC50) on tyrosinase is 53.6 ± 2.31 µM; against AChE, over 100 µM.

On to `COc1ccccc1/C=C/C(=O)c1cc(O)cc(O[C@@H]2O[C@H](CO)[C@@H](O)[C@H](O)[C@H]2O)c1` [16a, (2E)-1-(3-O-β-D-glucopyranosyl-5-hyroxyphenyl)-3-(2-methoxyphenyl)-prop-2-en-1-one], for which the values for the IC50 against α-glycosidase, on tyrosinase and on AChE were 12.87 ± 0.09 mM, over 100 µM and over 100 µM, respectively.

Regarding `COc1cccc(/C=C/C(=O)c2cc(O)cc(O[C@@H]3O[C@H](CO)[C@@H](O)[C@H](O)[C@H]3O)c2)c1` [16b, (2E)-1-(3-O-β-D-glucopyranosyl-5-hyroxyphenyl)-3-(3-methoxyphenyl)-prop-2-en-1-one], the results for the concentration for half-maximal inhibition (IC50) on α-glycosidase, at tyrosinase and against AChE were 6.6 ± 0.05 mM, over 100 µM and over 100 µM, respectively.

For `COc1ccc(/C=C/C(=O)c2cc(O)cc(O[C@@H]3O[C@H](CO)[C@@H](O)[C@H](O)[C@H]3O)c2)cc1` [16c, (2E)-1-(3-O-β-D-glucopyranosyl-5-hydroxyphenyl)-3-(4-methoxyphenyl)-prop-2-en-1-one], the concentration for half-maximal inhibition (IC50) on α-glycosidase is 6.8 ± 0.06 mM; at tyrosinase, over 100 µM; against AChE, over 100 µM.

Turning to `COc1ccccc1/C=C/C(=O)c1cc(OC2OC(CO)C(O)C(O)C2O)cc(OC2OC(CO)C(O)C(O)C2O)c1` [17a, (2E)-1-(3,5-di-O-β-D-glucopyranosylphenyl)-3-(2-methoxyphenyl)-prop-2-en-1-one], the IC50 at α-glycosidase is 23.6 ± 0.9 mM; at tyrosinase it was over 100 µM; on AChE it was over 100 µM.

For the molecule `COc1cccc(/C=C/C(=O)c2cc(OC3OC(CO)C(O)C(O)C3O)cc(OC3OC(CO)C(O)C(O)C3O)c2)c1` [17b, (2E)-1-(3,5-di-O-β-D-glucopyranosylphenyl)-3-(3-methoxyphenyl)-prop-2-en-1-one], the IC50 against α-glycosidase was 16.6 ± 0.62 mM; at tyrosinase, over 100 µM; at AChE it was over 100 µM.

As to `COc1ccc(/C=C/C(=O)c2cc(OC3OC(CO)C(O)C(O)C3O)cc(OC3OC(CO)C(O)C(O)C3O)c2)cc1` [17c, (2E)-1-(3,5-di-O-β-D-glucopyranosylphenyl)-3-(4-methoxyphenyl)-prop-2-en-1-one], the IC50 was 16.3 ± 0.63 mM on α-glycosidase, 34.4 ± 1.74 µM at tyrosinase and over 100 µM at AChE.
